Holding throughout (format): physicochemical
A short description of data set [1]: Radiolabelling yield (RCP) by reversed phase HPLC of 99mTc depreotide from lyophilized kits after accelerated temperature (40° C.) storage. To be noted: lyophilized kits thermally stressed by accelerated temperature storage. The protocol:
Lyophilized kits were prepared containing depreotide, Trolox®, and other components as described in Table 5. […] The kits were stored for one week at 40° C. Some kits were also stored at −10° C. as controls.

Data set [2] is described as follows: Radiolabelling yield (RCP) by reversed phase HPLC of 99mTc-labelled monoamine, diamide, single thiol peptide chelator with and without Trolox. The protocol: Lyophilized kit “placebo” vials were prepared containing sodium glucoheptonate dihydrate, edetate disodium dihydrate, and stannous chloride dihydrate at the concentrations set forth in Table 1 (control formulation).
The peptide chelator was radiolabelled with ^99mTc in the presence and absence of Trolox®. The peptide chelator was dissolved in water at a concentration of 1 mg/mL, and 50 μg (50 μL) of the peptide was added to each of three placebo vials. Ethanol and Trolox® were added to the control and Trolox®, preparations as described in Example 11. In addition, 100 μL phosphate buffered saline (PBS) was added to each preparation.

A short description of data set [3]: Radiolabelling yield (RCP) by reversed phase HPLC of 99mTc-labelled glycoprotein IIb/IIIa receptor-binding peptide with and without Trolox. The protocol:
Lyophilized kit vials were prepared containing the peptide (50 μg), sodium glucoheptonate dihydrate (10 mg), stannous chloride dihydrate (50 μg), and edetate disodium dihydrate (100 μg). The formulation was adjusted to pH 7.4 prior to lyophilization.
The lyophilized kits were radiolabelled with ^99mTc in the presence and absence of Trolox®. To the Trolox® preparation was added 2 mg Trolox® in 100 μL ethanol and 100 μL saline. The ethanol was necessary to aid in the dissolution of the Trolox®. To the control preparation was added 100 μL ethanol and 100 μL saline to account for the additional saline or ethanol added with the Trolox.

A short description of data set [4]: Radiolabelling yield (RCP) by reversed phase HPLC of 99mTc-labelled depreotide from lyophilized kits with Trolox. To be noted: prepared from formulated kits. The protocol: Lyophilized kit vials were prepared containing depreotide, Trolox®, and other components as described in Table 3.
Some of the formulations were also radiolabelled in a heated preparation (heat in a boiling water bath for 10 minutes).

The nature of data set [5]: Radiolabelling yield (RCP) by reversed phase HPLC of 99mTc-labelled bisamide bisthiol non-peptide chelator with and without Trolox. The source says:
The non-peptide chelator was radiolabelled with ^99mTc in the presence and absence of Trolox® using the placebo vial heated preparation procedure as described in Example 4.

The nature of data set [6]: Radiolabelling yield (RCP) by reversed phase HPLC of 99mTc-labelled depreotide from lyophilized kits with gentisic acid. The settings on record: when included in formulated kits. The protocol:
Lyophilized kit vials were prepared containing depreotide, GA, and other components as described in Table 1. Formulations were adjusted to pH 7.4 or 8.5 (as noted) prior to lyophilization.

Data on two compounds can be found in patent US7351397B2, “Stabilization of radiopharmaceutical compositions using hydrophilic 6-hydroxy chromans” (CIS bio international, priority 2000, dated 2008).

Molecules are shown by their SMILES.

For the compound `Cc1c(C)c2c(c(C)c1O)CCC(C)(C(=O)O)O2` (stereo not drawn) [Trolox®, 6-hydroxy-2,5,7,8-tetramethylchroman-2-carboxylic acid], the “stabilization of 99mTc-depreotide” value in data set [1] is “stabilizes”. Moreover, the “effect on radiolabelling yield and stability of 99mTc-labelled peptide chelator” value in data set [2] is “increases the radiolabelling yield and the stability”. Besides, the “effect on radiolabelling yield and stability of 99mTc-peptide” value in data set [3] is “increases the radiolabelling yield and the stability”. Further, the “effect on radiolabelling yield and stability of 99mTc depreotide” value in data set [4] is “increases the radiolabelling yield and the stability”. In addition, the “effect on radiolabelling yield and stability of 99mTc-labelled non-peptide chelator” value in data set [5] is “increases the radiolabelling yield and the stability”.
As to `O=C(O)c1cc(O)ccc1O` [gentisic acid, Gentisic acid], the “effect on radiolabelling yield and stability of 99mTc-depreotide” value in data set [6] was “decreases the radiochemical purity”.
